Assay: in vivo Pimecrolimus release from stent implanted in porcine model, residual drug load by HPLC
Details: PLGA matrix reservoir stent, FIG. 4, porcine
Description: In the example of FIG. 4, a stent is cut from a cobalt chromium alloy according to the pattern shown in FIGS. 1 and 2 and Pimecrolimus is loaded in a PLGA matrix within reservoirs in the stent. The drug and matrix are arranged for directional delivery of the drug primarily to the mural side of the stent. The in vivo drug release rate is programmed by providing different concentrations of drug in different regions of the matrix similar to the regions shown in FIG. 3, with a luminal region 50 of primarily PLGA, a middle region 60 of about 75% Pimecrolimus and about 25% PLGA, and a mural region 70 of about 95% Pimecrolimus and about 5% PLGA. The reservoirs are filled, by volume, with about 20-25% base or luminal region, 40-45% middle region, and 25-30% mural region. The in vivo drug releases described herein are normalized for a 3.0 mm diameter×16 mm long expanded stent which has almost 500 reservoirs and a total drug volume of about 0.54 mm^3.
The measurement of in vivo Pimecrolimus release from a stent can be performed according to the following Example. The in vivo release from other implantable medical devices can be performed in a similar manner by removal of tissue and measurement of total drug load and release kinetics by high pressure liquid chromatography (HPLC).
Stents are implanted in a porcine model and explanted at selected time points by removing the entire artery section. The expanded stents are labeled and frozen. The tissue is removed from the stent by slicing the tissue on the outside of the stent lengthwise, inverting the tissue, and removing the tissue by cutting and turning the tissue inside out. The stent may still be covered by a tough elastic membrane which is then removed by splitting the membrane and peeling it off the stent. For longer time points, there will also be a tube of tissue inside the stent. This tube is separated from the stent with tweezers, turned inside out and pulled out of the stent.
The following is the test procedure for generating the in vivo release curves for Pimecrolimus in FIG. 4.
The total drug load (TDL) of Pimecrolimus from a stent is determined by extracting all the polymer and drug from the stent in the solvent acetonitrile. The amount of Pimecrolimus in a solution sample is determined by High Pressure Liquid Chromatography (HPLC). The following conditions are used:
The in vivo release kinetic (RK) for Pimecrolimus from a stent is determined by running the TDL for multiple explanted time points. The TDL for the explanted samples is subtracted from the TDL of an unimplanted stent to determine the amount of Pimecrolimus released at each of the explanted time points.

CC[C@@H]1/C=C(\C)C[C@H](C)C[C@H](OC)[C@H]2O[C@@](O)(C(=O)C(=O)N3CCCC[C@H]3C(=O)O[C@H](/C(C)=C/[C@@H]3CC[C@H](Cl)[C@H](OC)C3)[C@H](C)[C@@H](O)CC1=O)[C@H](C)C[C@@H]2OC [Pimecrolimus]
in vivo cumulative release, percent of total Pimecrolimus loaded on stent (4 hour): about 10% | in vivo cumulative release, percent of total Pimecrolimus loaded on stent (24 hour): about 25% | in vivo cumulative release, percent of total Pimecrolimus loaded on stent (2 day): about 40% | in vivo cumulative release, percent of total Pimecrolimus loaded on stent (8 day): about 50% | in vivo cumulative release, percent of total Pimecrolimus loaded on stent (30 day): about 70% | in vivo cumulative release, percent of total Pimecrolimus loaded on stent (50 day): about 70%

— US20060204547A1, “Drug delivery stent with extended in vivo release of anti-inflammatory” (Conor Medsystems, Inc., priority 2005, published 2006)
